The text below walks through data of US6310081A, “Biphenyl sulfonyl aryl carboxylic acids useful in the treatment of insulin resistance and hyperglycemia” (American Home Products Corporation, priority 2001, dated 2001).

In one assay the test system is diabetic (ob/ob) mice. Put plainly: blood glucose lowering activity in diabetic (ob/ob) mice. It counts as in vivo, mouse (ob/ob, C57 B1/6J). Particulars: positive control, 100 mg/kg/day. The source says: The procedures used and results obtained are briefly described below.
The no -insulin dependent diabetic (NIDDM) syndrome can be typically characterizes by obesity, hyperglycemia, abnormal insulin secretion, hyperinsulinemia and insulin resistance.
In each test procedure, mice [Male or female ob/ob (C57 B1/6J) and their lean litermates (ob/+ or +/+, Jackson Laboratories) ages 2 to 5 months (10 to 65 g)] of a similar age were randomized according to body weight into 4 groups of 10 mice. The mice were housed 5 per cage and are maintained on normal rodent chow with water ad libitum. Mice received test compound daily by gavage (suspended in 0.5 ml of 0.5% methyl cellulose); dissolved in the drinking water; or admixed in the diet. The dose of compounds given ranges from 2.5 to 200 mg/kg body weight/day. The dose is calculated based on the fed weekly body weight and is expressed as active moiety. […] Control mice received vehicle only.
On the morning of Day 4, 7 or 14 two drops of blood (approximetly 50 ul) were collected into sodium fluoride containing tubes either from the tail vein or after decapitation. […] The plasma was isolated by centrifugation and the concentration of glucose is measured enzymatically on an Abbott V.P. Analyzer.
For each mouse, the percentage change in plasma glucose on Day 4, 7 or 14 is calculated relative to the mean plasma glucose of the vehicle treated mice. […]

The next assay concerns the target T1, hPTP1B (Homo sapiens, UniProt P18031).
T1 construct: made in house
T1 sequence (P18031 1-435): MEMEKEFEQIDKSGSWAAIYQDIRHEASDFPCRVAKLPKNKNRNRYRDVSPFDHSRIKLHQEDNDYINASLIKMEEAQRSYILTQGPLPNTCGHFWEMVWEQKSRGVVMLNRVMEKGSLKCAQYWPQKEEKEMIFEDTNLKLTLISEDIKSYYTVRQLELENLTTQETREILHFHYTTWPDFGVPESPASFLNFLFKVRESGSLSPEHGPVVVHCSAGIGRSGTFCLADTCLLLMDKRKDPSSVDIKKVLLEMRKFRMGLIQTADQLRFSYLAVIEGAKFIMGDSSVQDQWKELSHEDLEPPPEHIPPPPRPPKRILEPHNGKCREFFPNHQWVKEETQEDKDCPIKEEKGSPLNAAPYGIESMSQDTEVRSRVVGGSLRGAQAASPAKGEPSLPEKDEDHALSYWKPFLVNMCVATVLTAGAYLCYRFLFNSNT
Put plainly: Inhibition of Tri-Phosphorylated Insulin Receptor Dodecaphosphopeptide Dephosphorylation by hPTP1B. It counts as biochemical.

Turning to `CC1(COc2ccc(CC3SC(=O)NC3=O)cc2)CCCCC1` (centres unmarked) [Ciglitazone, 5-(4-(1-methylcyclohexylmethoxy)benzyl)-2,4-dione], the “plasma glucose lowering (in words)” value in the assay on diabetic (ob/ob) mice is listed as “significant lowering in plasma glucose”.
The term IC50 denotes the point on the concentration scale where inhibition reaches its midpoint. Read a low IC50 as inhibition by little substance. For the compound `Cc1oc(-c2ccc(C(F)(F)F)cc2)nc1-c1ccc(-c2ccc(OS(=O)(=O)c3ccc(C(=O)O)c(O)c3)cc2)cc1` [Example 14], at hPTP1B, half-maximal inhibition (IC50) was put at 193 nM.
